Laboratory results as given in PubChem BioAssay AID248 (DTP/NCI, 2004).
Values joined by “and” are separate entries in the source; they are usually repeats but may differ in a detail not shown here. Equal entries are not always repeated. Inconclusive results and toxic doses are left out. Rule as the data show it: active = T/C of 150% or more; inactive = T/C below 125%.

System: L1210 leukemia ip in BDF1 mice, survival T/C
Experiment: NCI In Vivo Anticancer Drug Screen. Data for tumor model L1210 Leukemia (intraperitoneal) in B6D2F1 (BDF1) mice
Conditions: endpoint: mean survival time, higher = longer survival
Summary of the method: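 Tumor cells were implanted, animals were treated, and survival was followed. The result divides the treated measurement by the vehicle-control measurement.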

[1] = dose: 100.0 mg/kg/injection, schedule: Q01DX001 (ip), vehicle: saline
[2] = dose: 200.0 mg/kg/injection, schedule: Q01DX001 (ip), vehicle: saline
[3] = dose: 400.0 mg/kg/injection, schedule: Q01DX001 (ip), vehicle: saline
[4] = dose: 100.0 mg/kg/injection, schedule: Q01DX009 (ip), vehicle: Klucel (hydroxypropylcellulose) (HPC)
[5] = dose: 100.0 mg/kg/injection, schedule: Q04DX003 (ip), vehicle: Klucel (hydroxypropylcellulose) (HPC)
[6] = dose: 200.0 mg/kg/injection, schedule: Q01DX009 (ip), vehicle: Klucel (hydroxypropylcellulose) (HPC)
[7] = dose: 200.0 mg/kg/injection, schedule: Q04DX003 (ip), vehicle: Klucel (hydroxypropylcellulose) (HPC)
[8] = dose: 400.0 mg/kg/injection, schedule: Q01DX009 (ip), vehicle: Klucel (hydroxypropylcellulose) (HPC)
[9] = dose: 400.0 mg/kg/injection, schedule: Q04DX003 (ip), vehicle: Klucel (hydroxypropylcellulose) (HPC)
[10] = dose: 100.0 mg/kg/injection, schedule: Q01DX001 (ip), vehicle: carboxymethylcellulose (CMC)
[11] = dose: 200.0 mg/kg/injection, schedule: Q01DX001 (ip), vehicle: carboxymethylcellulose (CMC)
[12] = dose: 100.0 mg/kg/injection, schedule: Q04DX003 (ip), vehicle: saline with Tween-80
[13] = dose: 200.0 mg/kg/injection, schedule: Q04DX003 (ip), vehicle: saline with Tween-80
[14] = dose: 400.0 mg/kg/injection, schedule: Q04DX003 (ip), vehicle: saline with Tween-80
[15] = dose: 50.0 mg/kg/injection, schedule: Q04DX003 (ip), vehicle: saline
[16] = dose: 100.0 mg/kg/injection, schedule: Q04DX003 (ip), vehicle: saline
[17] = dose: 100.0 mg/kg/injection, schedule: Q01DX009 (ip), vehicle: saline
[18] = dose: 200.0 mg/kg/injection, schedule: Q01DX009 (ip), vehicle: saline
[19] = dose: 400.0 mg/kg/injection, schedule: Q01DX009 (ip), vehicle: saline
[20] = dose: 100.0 mg/kg/injection, schedule: Q01DX001 (ip), vehicle: saline with Tween-80
[21] = dose: 100.0 mg/kg/injection, schedule: Q01DX009 (ip), vehicle: saline with Tween-80
[22] = dose: 200.0 mg/kg/injection, schedule: Q01DX009 (ip), vehicle: saline with Tween-80
[23] = dose: 400.0 mg/kg/injection, schedule: Q01DX009 (ip), vehicle: saline with Tween-80
[24] = dose: 50.0 mg/kg/injection, schedule: Q01DX009 (ip), vehicle: Klucel (hydroxypropylcellulose) (HPC)

Measured: T/C

COC1OCC(O)C(N)C1O (stereo not given)
inactive: [1] 102 % of control and 95 % of control | [2] 102 % of control and 104 % of control and 106 % of control | [3] 87 % of control and 98 % of control and 92 % of control

Cc1cccc(Nc2cc(Cl)nc(N)n2)c1
inactive: dose: 100.0 mg/kg/injection, schedule: Q01DX Z (ip), vehicle: methylcellulose (MC) 97 % of control | dose: 200.0 mg/kg/injection, schedule: Q01DX Z (ip), vehicle: methylcellulose (MC) 89 % of control

NC(CSCc1ccccc1)C(=O)OCc1ccccc1 (stereo not given)
inactive: [4] 98 % of control | [5] 100 % of control | [6] 92 % of control | [7] 89 % of control | [8] 95 % of control | [9] 96 % of control

CC(C)(C)NS(=O)(=O)/C=C/c1ccccc1
inactive: dose: 50.0 mg/kg/injection, schedule: Q01DX009 (ip), vehicle: acetone 95 % of control | dose: 100.0 mg/kg/injection, schedule: Q01DX001 (ip), vehicle: acetone 101 % of control | dose: 100.0 mg/kg/injection, schedule: Q01DX009 (ip), vehicle: acetone 93 % of control | dose: 200.0 mg/kg/injection, schedule: Q01DX001 (ip), vehicle: acetone 102 % of control | dose: 200.0 mg/kg/injection, schedule: Q01DX009 (ip), vehicle: acetone 92 % of control | dose: 400.0 mg/kg/injection, schedule: Q01DX001 (ip), vehicle: acetone 96 % of control

C(=N\N1CCN(/N=C/c2c[nH]c3ccccc23)CC1)/c1c[nH]c2ccccc12
inactive: [1] 94 % of control | [2] 94 % of control | [3] 94 % of control

CN(Cc1ccccc1)Cc1cc(CO)ccc1O
inactive: [10] 103 % of control | [11] 105 % of control

CCc1ccc(NC(C)=O)cc1
inactive: [12] 105 % of control | [13] 94 % of control | [14] 102 % of control

N=C(N)C1CCCCC1
inactive: [1] 95 % of control | [2] 97 % of control | [3] 100 % of control

N#CNN=Nc1cc(Cl)c(Cl)c(Cl)c1
inactive: dose: 12.0 mg/kg/injection, schedule: Q01DX009 (ip), vehicle: saline 101 % of control | dose: 25.0 mg/kg/injection, schedule: Q01DX009 (ip), vehicle: saline 109 % of control | dose: 25.0 mg/kg/injection, schedule: Q04DX003 (ip), vehicle: saline 105 % of control | dose: 50.0 mg/kg/injection, schedule: Q01DX009 (ip), vehicle: saline 97 % of control and 104 % of control | [15] 98 % of control | [16] 91 % of control

COC(=O)c1ccc(SCCCN2CCOCC2)cc1
inactive: [17] 97 % of control | [16] 109 % of control | [18] 96 % of control | dose: 200.0 mg/kg/injection, schedule: Q04DX003 (ip), vehicle: saline 96 % of control | [19] 102 % of control | dose: 400.0 mg/kg/injection, schedule: Q04DX003 (ip), vehicle: saline 100 % of control

COc1ccc([N+](=O)[O-])cc1NC(=O)Nc1ccc(I)cc1
inactive: [4] 103 % of control | [6] 95 % of control | [8] 103 % of control

CC(=O)Nc1cc2[nH]cnc2c(Br)n1
inactive: dose: 25.0 mg/kg/injection, schedule: Q01DX005 (ip), vehicle: saline 100 % of control | dose: 50.0 mg/kg/injection, schedule: Q01DX005 (ip), vehicle: saline 105 % of control | dose: 100.0 mg/kg/injection, schedule: Q01DX005 (ip), vehicle: saline 110 % of control

CC(C)C(NC(=O)c1ccccc1)C(=O)O (stereo not given)
inactive: [4] 92 % of control | [5] 96 % of control | [6] 98 % of control | [7] 113 % of control | [8] 96 % of control | [9] 100 % of control

O=c1ccc([N+](=O)[O-])cn1Cc1ccccc1
inactive: [20] 114 % of control | [21] 106 % of control | dose: 200.0 mg/kg/injection, schedule: Q01DX001 (ip), vehicle: saline with Tween-80 100 % of control | [22] 98 % of control | dose: 400.0 mg/kg/injection, schedule: Q01DX001 (ip), vehicle: saline with Tween-80 96 % of control | [23] 106 % of control

O=c1[nH]c2ccccc2n1C1=CCN(Cc2ccccc2)CC1
inactive: [5] 95 % of control | [7] 109 % of control | [9] 112 % of control

CCC(=O)c1ccc(N=Nc2c(N)nc(N)nc2N)cc1
inactive: [1] 110 % of control | [2] 94 % of control

O=C(c1ccc(OC(F)F)cc1)N1CCCCC1
inactive: [5] 94 % of control | [7] 93 % of control | [9] 96 % of control

NC(=S)c1n[nH]nc1N
inactive: dose: 50.0 mg/kg/injection, schedule: Q01DX001 (ip), vehicle: saline 104 % of control | [1] 100 % of control | [2] 100 % of control

OC(C1CO1)(C(F)(F)F)C(F)(F)F (stereo not given)
inactive: [17] 98 % of control | [12] 92 % of control | [18] 106 % of control | [13] 91 % of control | [14] 97 % of control

COC(=O)C(CC/C(=N\Nc1ccc([N+](=O)[O-])cc1[N+](=O)[O-])c1ccccc1)C(=O)OC
inactive: dose: 25.0 mg/kg/injection, schedule: Q01DX001 (ip), vehicle: saline with Tween-80 95 % of control | dose: 50.0 mg/kg/injection, schedule: Q01DX001 (ip), vehicle: saline with Tween-80 88 % of control | [20] 91 % of control

NC(C1SCCS1)C(O)C(O)C(O)CO (stereo not given)
inactive: [17] 98 % of control | [18] 91 % of control | [19] 96 % of control

CCCCCCCCC1SC1CCCCCCCC(=O)OCCOCCOCC (stereo not given)
inactive: [21] 95 % of control | [22] 92 % of control | [23] 95 % of control

O=C(O)c1ccc2c(c1)NC(c1cccc3ccccc13)NC2=O (stereo not given)
inactive: [24] 93 % of control | [4] 94 % of control | dose: 150.0 mg/kg/injection, schedule: Q01DX009 (ip), vehicle: Klucel (hydroxypropylcellulose) (HPC) 96 % of control

CCOC(=O)C(C#N)N=O (stereo not given)
inactive: dose: 6.25 mg/kg/injection, schedule: Q04DX003 (ip), vehicle: Klucel (hydroxypropylcellulose) (HPC) 89 % of control | dose: 12.5 mg/kg/injection, schedule: Q04DX003 (ip), vehicle: Klucel (hydroxypropylcellulose) (HPC) 91 % of control | dose: 25.0 mg/kg/injection, schedule: Q01DX009 (ip), vehicle: Klucel (hydroxypropylcellulose) (HPC) 95 % of control | dose: 25.0 mg/kg/injection, schedule: Q04DX003 (ip), vehicle: Klucel (hydroxypropylcellulose) (HPC) 92 % of control | [24] 103 % of control | [15] 100 % of control | [4] 97 % of control

C(=N\OCc1ccccc1)/c1ccccn1
inactive: [4] 94 % of control | [5] 96 % of control | [6] 101 % of control | [7] 97 % of control | [8] 100 % of control | [9] 103 % of control

O=C(Oc1ccc(N=Nc2ccccc2)c(C(=O)O)c1)Oc1ccc(N=Nc2ccccc2)c(C(=O)O)c1
inactive: [10] 101 % of control | [11] 98 % of control

CCOC(=O)C1(C(=O)OCC)CCC(O)N1C(=O)c1ccccc1[N+](=O)[O-] (stereo not given)
inactive: dose: 50.0 mg/kg/injection, schedule: Q04DX003 (ip), vehicle: Klucel (hydroxypropylcellulose) (HPC) 97 % of control | [5] 91 % of control | [7] 91 % of control

Cc1ccc2c[n+]3cc4ccccc4cc3cc2c1
inactive: dose: 1.56 mg/kg/injection, schedule: Q04DX003 (ip), vehicle: saline 93 % of control | dose: 3.12 mg/kg/injection, schedule: Q01DX009 (ip), vehicle: saline 107 % of control | dose: 3.12 mg/kg/injection, schedule: Q04DX003 (ip), vehicle: saline 114 % of control | dose: 6.25 mg/kg/injection, schedule: Q01DX009 (ip), vehicle: saline 105 % of control | dose: 6.25 mg/kg/injection, schedule: Q04DX003 (ip), vehicle: saline 103 % of control | dose: 12.5 mg/kg/injection, schedule: Q04DX003 (ip), vehicle: saline 107 % of control
